According to ChEMBL document CHEMBL4800728, “Data for DCP probe JNJ-54119936” (2021):

How the values were obtained:
[1] = target: Glycogen synthase kinase-3 beta (Homo sapiens) (UniProt P49841); assay: GSK3beta Invitrogen kinase panel; settings: Compound concentration 10.0 uM
[2] = target: 5-hydroxytryptamine receptor 2A (Homo sapiens) (UniProt P28223); settings: Compound concentration 10.0 uM
[3] = target: 5-hydroxytryptamine receptor 5A (Homo sapiens) (UniProt P47898); settings: Compound concentration 10.0 uM
[4] = target: Protein kinase C alpha type (Homo sapiens) (UniProt P17252); assay: PKCalpha Invitrogen kinase panel; settings: Compound concentration 10.0 uM
[5] = target: Tyrosine-protein kinase JAK2 (Homo sapiens) (UniProt O60674); assay: JAK2 Invitrogen kinase panel; settings: Compound concentration 10.0 uM
[6] = target: Rho-associated protein kinase 1 (Homo sapiens) (UniProt Q13464); assay: ROCK_I Invitrogen kinase panel; settings: Compound concentration 10.0 uM
[7] = target: T1, CAR (nuclear receptor subfamily 1 group I member 3) (Homo sapiens, UniProt Q14994); assay: CAR Indigo Bioscience nuclear receptor screen
T1 sequence (Q14994 whole entry): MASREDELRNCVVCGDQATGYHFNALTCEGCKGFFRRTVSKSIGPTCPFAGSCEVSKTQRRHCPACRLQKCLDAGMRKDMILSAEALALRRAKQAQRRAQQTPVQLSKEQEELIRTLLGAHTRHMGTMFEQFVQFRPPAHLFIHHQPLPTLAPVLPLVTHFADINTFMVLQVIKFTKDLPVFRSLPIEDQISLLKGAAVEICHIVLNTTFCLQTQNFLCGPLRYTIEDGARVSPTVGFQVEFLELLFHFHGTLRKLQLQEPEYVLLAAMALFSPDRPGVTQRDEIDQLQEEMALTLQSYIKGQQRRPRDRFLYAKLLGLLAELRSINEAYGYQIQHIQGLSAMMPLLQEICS

[8] = target: Muscarinic acetylcholine receptor M3 (Homo sapiens) (UniProt P20309); settings: Compound concentration 10.0 uM
[9] = target: Vitamin D3 receptor (Homo sapiens) (UniProt P11473); assay: VDR Indigo Bioscience nuclear receptor screen
Sequence of Vitamin D3 receptor (Homo sapiens) (P11473 whole entry): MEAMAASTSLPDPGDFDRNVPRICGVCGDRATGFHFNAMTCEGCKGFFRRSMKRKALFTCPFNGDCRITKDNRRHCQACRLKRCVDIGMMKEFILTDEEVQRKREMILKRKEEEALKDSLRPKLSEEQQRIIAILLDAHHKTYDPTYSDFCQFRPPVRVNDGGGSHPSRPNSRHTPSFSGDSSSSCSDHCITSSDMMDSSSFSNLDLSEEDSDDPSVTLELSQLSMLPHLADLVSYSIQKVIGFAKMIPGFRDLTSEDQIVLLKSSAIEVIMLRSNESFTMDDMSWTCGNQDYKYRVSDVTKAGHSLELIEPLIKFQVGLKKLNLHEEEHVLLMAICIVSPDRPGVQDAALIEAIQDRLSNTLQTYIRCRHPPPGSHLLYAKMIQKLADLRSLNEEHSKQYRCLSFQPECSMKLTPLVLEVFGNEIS

Sequence of Muscarinic acetylcholine receptor M3 (Homo sapiens) (P20309 whole entry, looked up): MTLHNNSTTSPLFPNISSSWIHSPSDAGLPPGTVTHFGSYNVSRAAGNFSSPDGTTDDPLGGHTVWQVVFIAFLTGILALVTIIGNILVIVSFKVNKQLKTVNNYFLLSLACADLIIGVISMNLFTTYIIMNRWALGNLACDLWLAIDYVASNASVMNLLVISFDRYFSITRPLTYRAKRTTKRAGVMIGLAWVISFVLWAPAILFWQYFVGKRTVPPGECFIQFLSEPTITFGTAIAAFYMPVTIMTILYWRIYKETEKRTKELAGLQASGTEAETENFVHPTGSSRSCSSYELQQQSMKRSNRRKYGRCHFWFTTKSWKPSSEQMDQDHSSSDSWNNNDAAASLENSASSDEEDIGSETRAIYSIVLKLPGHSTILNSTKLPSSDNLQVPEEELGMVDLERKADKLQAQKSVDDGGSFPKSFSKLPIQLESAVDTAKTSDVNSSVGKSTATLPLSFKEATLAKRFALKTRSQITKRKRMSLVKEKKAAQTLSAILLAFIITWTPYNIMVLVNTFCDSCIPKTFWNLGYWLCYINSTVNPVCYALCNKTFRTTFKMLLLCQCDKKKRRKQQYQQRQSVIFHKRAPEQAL
Sequence of Tyrosine-protein kinase JAK2 (Homo sapiens) (O60674 whole entry): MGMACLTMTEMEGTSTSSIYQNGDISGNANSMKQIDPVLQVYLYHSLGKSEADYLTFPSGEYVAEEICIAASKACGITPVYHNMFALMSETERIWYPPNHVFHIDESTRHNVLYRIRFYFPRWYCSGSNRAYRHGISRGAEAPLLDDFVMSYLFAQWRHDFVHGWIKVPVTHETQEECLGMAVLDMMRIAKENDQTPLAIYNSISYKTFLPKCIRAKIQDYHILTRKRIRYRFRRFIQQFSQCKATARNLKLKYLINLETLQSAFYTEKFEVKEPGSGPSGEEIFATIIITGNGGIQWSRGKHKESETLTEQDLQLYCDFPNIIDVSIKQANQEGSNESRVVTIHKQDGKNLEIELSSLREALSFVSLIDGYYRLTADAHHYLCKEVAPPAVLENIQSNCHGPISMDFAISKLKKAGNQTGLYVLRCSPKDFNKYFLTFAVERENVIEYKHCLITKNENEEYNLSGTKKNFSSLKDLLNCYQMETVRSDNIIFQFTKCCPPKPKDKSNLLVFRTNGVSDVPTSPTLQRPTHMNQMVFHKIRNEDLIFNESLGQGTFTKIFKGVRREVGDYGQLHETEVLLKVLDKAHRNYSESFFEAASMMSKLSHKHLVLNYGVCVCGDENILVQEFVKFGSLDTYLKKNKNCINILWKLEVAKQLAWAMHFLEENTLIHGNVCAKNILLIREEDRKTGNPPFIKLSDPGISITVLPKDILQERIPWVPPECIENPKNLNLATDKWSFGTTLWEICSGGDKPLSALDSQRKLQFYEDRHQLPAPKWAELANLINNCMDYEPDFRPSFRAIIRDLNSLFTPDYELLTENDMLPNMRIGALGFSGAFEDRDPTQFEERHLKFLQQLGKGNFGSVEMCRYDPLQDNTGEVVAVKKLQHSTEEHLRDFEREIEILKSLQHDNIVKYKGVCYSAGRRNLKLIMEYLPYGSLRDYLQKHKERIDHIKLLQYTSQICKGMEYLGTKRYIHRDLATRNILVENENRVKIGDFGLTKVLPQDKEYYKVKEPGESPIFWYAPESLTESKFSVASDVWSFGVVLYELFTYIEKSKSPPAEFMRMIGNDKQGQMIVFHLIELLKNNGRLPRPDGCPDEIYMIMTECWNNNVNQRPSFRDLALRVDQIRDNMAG
Sequence of 5-hydroxytryptamine receptor 5A (Homo sapiens) (P47898 whole entry): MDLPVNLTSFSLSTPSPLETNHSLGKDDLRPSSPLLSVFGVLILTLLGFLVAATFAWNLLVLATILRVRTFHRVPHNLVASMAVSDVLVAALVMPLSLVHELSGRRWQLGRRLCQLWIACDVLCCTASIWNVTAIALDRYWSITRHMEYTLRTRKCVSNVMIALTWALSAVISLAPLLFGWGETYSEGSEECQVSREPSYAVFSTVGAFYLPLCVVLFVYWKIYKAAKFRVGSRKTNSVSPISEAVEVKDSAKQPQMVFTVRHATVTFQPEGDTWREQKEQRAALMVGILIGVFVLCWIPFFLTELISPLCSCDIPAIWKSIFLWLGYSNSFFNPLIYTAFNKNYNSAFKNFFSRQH
Sequence of Glycogen synthase kinase-3 beta (Homo sapiens) (P49841 whole entry, looked up): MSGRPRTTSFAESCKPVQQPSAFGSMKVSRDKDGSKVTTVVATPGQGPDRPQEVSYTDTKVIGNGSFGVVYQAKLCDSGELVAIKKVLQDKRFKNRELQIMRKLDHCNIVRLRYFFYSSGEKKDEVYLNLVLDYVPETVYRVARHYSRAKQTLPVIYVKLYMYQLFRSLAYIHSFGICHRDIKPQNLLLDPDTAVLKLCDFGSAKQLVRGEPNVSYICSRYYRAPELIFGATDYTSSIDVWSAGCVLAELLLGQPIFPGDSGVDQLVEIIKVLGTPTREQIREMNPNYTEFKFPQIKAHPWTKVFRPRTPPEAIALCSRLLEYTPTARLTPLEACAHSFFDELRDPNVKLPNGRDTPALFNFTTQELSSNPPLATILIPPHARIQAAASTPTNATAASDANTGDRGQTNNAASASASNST
Sequence of 5-hydroxytryptamine receptor 2A (Homo sapiens) (P28223 whole entry): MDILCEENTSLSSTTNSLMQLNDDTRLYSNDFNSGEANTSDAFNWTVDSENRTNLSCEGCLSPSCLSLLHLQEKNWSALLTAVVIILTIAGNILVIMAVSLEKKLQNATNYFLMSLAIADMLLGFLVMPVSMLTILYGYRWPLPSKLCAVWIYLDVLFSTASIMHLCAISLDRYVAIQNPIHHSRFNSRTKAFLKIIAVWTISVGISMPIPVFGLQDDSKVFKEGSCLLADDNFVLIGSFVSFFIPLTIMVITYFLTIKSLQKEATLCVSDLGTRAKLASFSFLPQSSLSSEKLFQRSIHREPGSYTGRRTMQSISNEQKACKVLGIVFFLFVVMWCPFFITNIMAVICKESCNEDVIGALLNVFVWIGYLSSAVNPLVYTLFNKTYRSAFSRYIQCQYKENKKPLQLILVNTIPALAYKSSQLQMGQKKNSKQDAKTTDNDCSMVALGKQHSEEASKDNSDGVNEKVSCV

inhibition [1]: 3%
inhibition [2]: 6.87%
inhibition [3]: -0.46%
inhibition [4]: 4%
inhibition [5]: 6%
inhibition [6]: 4%
inhibition at 0.3 µM ([7]; compound concentration 0.3 uM): -0.121% (not active)
inhibition at 1 µM ([7]; compound concentration 1 uM): -0.752% (not active)
inhibition at 3 µM ([7]; compound concentration 3 uM): 2.37% (not active)
inhibition [8]: 0.49%
inhibition ([9]; Compound concentration 0.3 uM): -6.97%
inhibition ([9]; Compound concentration 1.0 uM): -0.284%
SMILES: COc1nc2ccc([C@@](O)(c3ccccc3)C3CCN(C(C)=O)CC3)cc2c(Cl)c1Cc1ccc(-n2cccn2)cc1 [JNJ-54119936]
